Assay results from patent EP3521435A1, “A HIGH STRINGENCY SELECTION SYSTEM FOR PROTEIN EXPRESSION IN PROLINE-AUXOTROPHIC CELLS” (Bayer AG, priority 2018, dated 2019).

What was measured:
CHO-K1 cells [1] = assay: Flow cytometric analysis of GFP expression (MFI, high fluorescing cells) in stably selected cell populations; format: cell-based, Chinese hamster
Method in brief: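 Suspension CHO-K1 nucleofected (1e7 cells, 5 µg linearized DNA) with GFP vectors carrying puromycin marker plus SV40-driven murine P5CS; seeded 2e5 viable cells/ml, selected with 10 µg/ml puromycin or in proline/ornithine-free medium ± added pressure, viability tracked over time. GFP read by flow cytometry (yellow channel, PI-excluded dead cells): MFI and % high fluorescers above set threshold.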

CHO-K1 cells [2] = assay: Batch fermentation in shake flasks of human IgG1 expressing stable cell populations (Poros A-HPLC titer, viable cell density, viability); format: cell-based, Chinese hamster; conditions: for Productivity profile / Batch titer day 7: human IgG1
[3] = Table 11, day 19 post-transfection, pJF1555, CD-Fusion + 10 µg/ml Puromycin
[4] = Table 11, day 19 post-transfection, pJF1555, CD-Fusion w/o Pro + 0.25mM Pro + 10 µg/ml Puromycin
[5] = Table 13, day 19 post-transfection, pJF1555, CD-Fusion + 10 µg/ml Puromycin
[6] = Table 13, day 19 post-transfection, pJF1555, CD-Fusion w/o Pro + 0.25 mM Pro + 10 µg/ml Puromycin
[7] = Table 13, day 19 post-transfection, pJF1576 (control, human IgG1 vector), CD-Fusion + 10 µg/ml Puromycin
[8] = day 15 post-transfection, pJF1555, CD Fusion + 10 µg/ml Puromycin
[9] = day 15 post-transfection, pJF1555, CD-Fusion w/o Pro + 10 µg/ml Puromycin
[10] = day 15 post-transfection, pJF1555, CD-Fusion w/o Pro + 0.25 mM Pro + 10 µg/ml Puromycin
[11] = day 20 post-transfection, pJF1556, CD Fusion + 10 µg/ml Puromycin
[12] = day 20 post-transfection, pJF1556, CD-Fusion w/o Pro + 10 µg/ml Puromycin
[13] = day 20 post-transfection, pJF1556, CD-Fusion w/o Pro + 0.25 mM Pro + 10 µg/ml Puromycin
[14] = day 22 post-transfection, pJF2053, CD-Fusion + 10 µg/ml Puromycin
[15] = day 22 post-transfection, pJF2222, CD-Fusion + 10 µg/ml Puromycin
[16] = day 29 post-transfection, pJF2053, CD-Fusion + 10 µg/ml Puromycin
[17] = Day 2 after inoculation, pJF1576, selected in CD Fusion + 10 µg/ml Puromycin, non-selecting conditions
[18] = Day 2 after inoculation, pJF1576, selected in CD-Fusion w/o Pro + 0.25 mM Pro + 10 µg/ml Puromycin, non-selecting conditions
[19] = Day 3 after inoculation, pJF1576, selected in CD Fusion + 10 µg/ml Puromycin, selective conditions
[20] = Day 4 after inoculation, pJF1576, selected in CD Fusion + 10 µg/ml Puromycin, non-selecting conditions
[21] = Day 4 after inoculation, pJF1576, selected in CD-Fusion w/o Pro + 0.25 mM Pro + 10 µg/ml Puromycin, non-selecting conditions
[22] = Day 5 after inoculation, pJF1576, selected in CD Fusion + 10 µg/ml Puromycin, selective conditions
[23] = Day 7 after inoculation, pJF1576, selected in CD Fusion + 10 µg/ml Puromycin, non-selecting conditions
[24] = Day 7 after inoculation, pJF1576, selected in CD Fusion + 10 µg/ml Puromycin, selective conditions
[25] = Day 7 after inoculation, pJF1576, selected in CD-Fusion w/o Pro + 0.25 mM Pro + 10 µg/ml Puromycin, non-selecting conditions
[26] = Day 9 after inoculation, pJF1576, selected in CD Fusion + 10 µg/ml Puromycin, non-selecting conditions
[27] = Day 9 after inoculation, pJF1576, selected in CD-Fusion w/o Pro + 0.25 mM Pro + 10 µg/ml Puromycin, non-selecting conditions

Compound: COc1ccc(C[C@H](N)C(=O)N[C@H]2[C@@H](O)[C@H](n3cnc4c(N(C)C)ncnc43)O[C@@H]2CO)cc1 [Puromycin]
- Frequency of high fluorescing cells (CHO-K1 cells [1]; Table 9, day 15 post-transfection, pJF1555, CD-Fusion w/o Pro + 0.25 mM Pro + 10 µg/ml Puromycin): 4.3%
- Frequency of high fluorescing cells (CHO-K1 cells [1]; [3]): 3.4%
- Median Fluorescence Intensity (MFI) (yellow) (CHO-K1 cells [1]; [3]): 13092
- Frequency of high fluorescing cells (CHO-K1 cells [1]; [4]): 3.6%
- Median Fluorescence Intensity (MFI) (yellow) (CHO-K1 cells [1]; [4]): 12860
- Frequency of high fluorescing cells (CHO-K1 cells [1]; [5]): 1.0%
- Median Fluorescence Intensity (MFI) (yellow) (CHO-K1 cells [1]; [5]): 6167
- Frequency of high fluorescing cells (CHO-K1 cells [1]; [6]): 1.5%
- Median Fluorescence Intensity (MFI) (yellow) (CHO-K1 cells [1]; [6]): 6625
- Frequency of high fluorescing cells (CHO-K1 cells [1]; [7]): 0.1%
- Median Fluorescence Intensity (MFI) (yellow) (CHO-K1 cells [1]; [7]): 9
- Frequency of high fluorescing cells (CHO-K1 cells [1]; [8]): 5.1%
- Median Fluorescence Intensity (MFI) (yellow) (CHO-K1 cells [1]; [8]): 5072
- Frequency of high fluorescing cells (CHO-K1 cells [1]; [9]): 5.1%
- Median Fluorescence Intensity (MFI) (yellow) (CHO-K1 cells [1]; [9]): 5102
- Frequency of high fluorescing cells (CHO-K1 cells [1]; [10]): 4.6%
- Median Fluorescence Intensity (MFI) (yellow) (CHO-K1 cells [1]; [10]): 4394
- Frequency of high fluorescing cells (CHO-K1 cells [1]; [11]): 6.9%
- Median Fluorescence Intensity (MFI) (yellow) (CHO-K1 cells [1]; [11]): 7827
- Frequency of high fluorescing cells (CHO-K1 cells [1]; [12]): 8.7%
- Median Fluorescence Intensity (MFI) (yellow) (CHO-K1 cells [1]; [12]): 9370
- Frequency of high fluorescing cells (CHO-K1 cells [1]; [13]): 9.6%
- Median Fluorescence Intensity (MFI) (yellow) (CHO-K1 cells [1]; [13]): 8783
- Frequency of high fluorescing cells (CHO-K1 cells [1]; [14]): 2.5%
- Median Fluorescence Intensity (MFI) (yellow) (CHO-K1 cells [1]; [14]): 11308
- Frequency of high fluorescing cells (CHO-K1 cells [1]; [15]): 4.2%
- Median Fluorescence Intensity (MFI) (yellow) (CHO-K1 cells [1]; [15]): 11476
- Frequency of high fluorescing cells (CHO-K1 cells [1]; [16]): 2.3%
- Median Fluorescence Intensity (MFI) (yellow) (CHO-K1 cells [1]; [16]): 11502
- Viability profile (CHO-K1 cells [2]; Day 0 after inoculation, pJF1576, selected in CD Fusion + 10 µg/ml Puromycin, non-selecting conditions): 98.7%
- Viability profile (CHO-K1 cells [2]; Day 0 after inoculation, pJF1576, selected in CD Fusion + 10 µg/ml Puromycin, selective conditions): 92.8%
- Viability profile (CHO-K1 cells [2]; Day 0 after inoculation, pJF1576, selected in CD-Fusion w/o Pro + 0.25 mM Pro + 10 µg/ml Puromycin, non-selecting conditions): 99.0%
- Productivity profile (CHO-K1 cells [2]; [17]): 6.9 mg/L
- Productivity profile (CHO-K1 cells [2]; Day 2 after inoculation, pJF1576, selected in CD Fusion + 10 µg/ml Puromycin, selective conditions): 10.9 mg/L
- Productivity profile (CHO-K1 cells [2]; [18]): 11.2 mg/L
- Viability profile (CHO-K1 cells [2]; [17]): 99.0%
- Viable cell density profile (CHO-K1 cells [2]; [17]): 7,7E+05 VCD/ml
- Viability profile (CHO-K1 cells [2]; [18]): 99.1%
- Viable cell density profile (CHO-K1 cells [2]; [18]): 8,3E+05 VCD/ml
- Viability profile (CHO-K1 cells [2]; [19]): 98.4%
- Viable cell density profile (CHO-K1 cells [2]; [19]): 1.7E+06 VCD/ml
- Productivity profile (CHO-K1 cells [2]; [20]): 15.1 mg/L
- Productivity profile (CHO-K1 cells [2]; Day 4 after inoculation, pJF1576, selected in CD Fusion + 10 µg/ml Puromycin, selective conditions): 27.6 mg/L
- Productivity profile (CHO-K1 cells [2]; [21]): 24.1 mg/L
- Viability profile (CHO-K1 cells [2]; [20]): 99.7%
- Viable cell density profile (CHO-K1 cells [2]; [20]): 6,2E+06 VCD/ml
- Viability profile (CHO-K1 cells [2]; [21]): 99.8%
- Viable cell density profile (CHO-K1 cells [2]; [21]): 5,4E+06 VCD/ml
- Viability profile (CHO-K1 cells [2]; [22]): 99.1%
- Viable cell density profile (CHO-K1 cells [2]; [22]): 7.1E+06 VCD/ml
- Productivity profile (CHO-K1 cells [2]; [23]): 43.3 mg/L
- Productivity profile (CHO-K1 cells [2]; [24]): 60.5 mg/L
- Productivity profile (CHO-K1 cells [2]; [25]): 60.6 mg/L
- Viability profile (CHO-K1 cells [2]; [23]): 98.7%
- Viable cell density profile (CHO-K1 cells [2]; [23]): 1,2E+07 VCD/ml
- Viability profile (CHO-K1 cells [2]; [24]): 97.7%
- Viable cell density profile (CHO-K1 cells [2]; [24]): 1.1E+07 VCD/ml
- Viability profile (CHO-K1 cells [2]; [25]): 97.8%
- Viable cell density profile (CHO-K1 cells [2]; [25]): 1,0E+07 VCD/ml
- Productivity profile (CHO-K1 cells [2]; [26]): 61.5 mg/L
- Productivity profile (CHO-K1 cells [2]; [27]): 92.5 mg/L
- Viability profile (CHO-K1 cells [2]; [26]): 43.9%
- Viable cell density profile (CHO-K1 cells [2]; [26]): 5,8E+06 VCD/ml
- Viability profile (CHO-K1 cells [2]; [27]): 58.1%
- Viable cell density profile (CHO-K1 cells [2]; [27]): 6,2E+06 VCD/ml
- Batch titer day 7 (CHO-K1 cells [2]; pJF1576, selected in CD Fusion + 10 µg/ml Puromycin, non-selecting conditions): 145 mg/L
- Batch titer day 7 (CHO-K1 cells [2]; pJF1576, selected in CD-Fusion w/o Pro + 10 µg/ml Puromycin, non-selecting conditions): 198 mg/L
- Batch titer day 7 (CHO-K1 cells [2]; pJF1576, selected in CD-Fusion w/o Pro + 0.25 mM Pro + 10 µg/ml Puromycin, non-selecting conditions): 164 mg/L
- Batch titer day 7 (CHO-K1 cells [2]; pJF1577, selected in CD Fusion + 10 µg/ml Puromycin, non-selecting conditions): 174 mg/L
- Batch titer day 7 (CHO-K1 cells [2]; pJF1577, selected in CD-Fusion w/o Pro + 10 µg/ml Puromycin, non-selecting conditions): 154 mg/L
- Batch titer day 7 (CHO-K1 cells [2]; pJF1577, selected in CD-Fusion w/o Pro + 0.25 mM Pro + 10 µg/ml Puromycin, non-selecting conditions): 127 mg/L
